Experimental data from ChEMBL document CHEMBL1201862, “PubChem BioAssay data set” (2004).
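48-hour exposure; five concentrations; linearly interpolated endpoints. At the GI50, growth is halved.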 Active and inactive are the calls of the source. Cut-off read from the data, not from the text of the source: active = GI50 up to about 1.1 µM and inactive = higher.

Experiments:
Assay in all cases: NCI anticancer screen, dose series, 48 h
786-0 = tested on: 786-0
A498 = tested on: A498
ACHN = tested on: ACHN
EKVX = tested on: EKVX
HCC 2998 = tested on: HCC 2998
HCT-15 = tested on: HCT-15
HL-60 = tested on: HL-60
HT-29 = tested on: HT-29
KM12 = tested on: KM12
MDA-MB-231 = tested on: MDA-MB-231
NCI-H522 = tested on: NCI-H522
RXF 393 = tested on: RXF 393
SF-268 = tested on: SF-268
SK-MEL-28 = tested on: SK-MEL-28
SN12C = tested on: SN12C
SW-620 = tested on: SW-620
UACC-257 = tested on: UACC-257
UO-31 = tested on: UO-31
SF-539 = tested on: SF-539

## CCC/C(Cl)=N/OC(=O)Nc1cccc(F)c1
786-0
  GI50: 1.69 µM (inactive)
A498
  GI50: > 10 µM (inactive)
ACHN
  GI50: 1.55 µM (inactive)
EKVX
  GI50: 2.46 µM (inactive)
HCC 2998
  GI50: 15.6 µM (inactive)
HCT-15
  GI50: 1.85 µM
HL-60
  GI50: 1.28 µM (inactive)
HT-29
  GI50: 4.91 µM (inactive)
KM12
  GI50: 15.7 µM (inactive)
MDA-MB-231
  GI50: 13.1 µM (inactive)
NCI-H522
  GI50: 0.309 µM (active)
RXF 393
  GI50: 3.23 µM (inactive)
SF-268
  GI50: 21.7 µM (inactive)
SK-MEL-28
  GI50: 5.12 µM (inactive)
SN12C
  GI50: 6.75 µM (inactive)
SW-620
  GI50: 1.8 µM (inactive)
UACC-257
  GI50: 14.8 µM (inactive)
UO-31
  GI50: 8.97 µM (inactive)

## CC1(C)OC(CCO)CN1C(=O)OCc1ccccc1 (configuration not stated)
786-0
  GI50: > 100 µM (inactive)
A498
  GI50: > 100 µM (inactive)
ACHN
  GI50: > 100 µM (inactive)
EKVX
  GI50: > 100 µM (inactive)
HCC 2998
  GI50: > 100 µM (inactive)
HCT-15
  GI50: > 100 µM
HL-60
  GI50: > 100 µM (inactive)
KM12
  GI50: > 100 µM (inactive)
MDA-MB-231
  GI50: > 100 µM (inactive)
NCI-H522
  GI50: 74.6 µM (inactive)
RXF 393
  GI50: > 100 µM (inactive)
SF-539
  GI50: > 100 µM (inactive)
SK-MEL-28
  GI50: > 100 µM (inactive)
SN12C
  GI50: > 100 µM (inactive)
SW-620
  GI50: > 100 µM (inactive)
UACC-257
  GI50: > 100 µM (inactive)
UO-31
  GI50: > 100 µM (inactive)

## Cc1ccc2[nH]c3c(c2c1)C1CCC(C(C)(C)C)CC1C1C(=O)N(c2ccc(Oc4ccccc4)cc2)C(=O)C31 (configuration not stated)
786-0
  GI50: 4.72 µM (inactive)
A498
  GI50: 9.57 µM (inactive)
ACHN
  GI50: 22.6 µM (inactive)
EKVX
  GI50: 27 µM (inactive)
HCC 2998
  GI50: 39.3 µM (inactive)
HCT-15
  GI50: 56.8 µM
HL-60
  GI50: 2.57 µM (inactive)
HT-29
  GI50: > 79.6 µM (inactive)
KM12
  GI50: > 100 µM (inactive)
MDA-MB-231
  GI50: 20.3 µM (inactive)
NCI-H522
  GI50: 13.2 µM (inactive)
RXF 393
  GI50: 7.55 µM (inactive)
SF-268
  GI50: 6.75 µM (inactive)
SK-MEL-28
  GI50: > 58.7 µM (inactive)
SN12C
  GI50: 10.4 µM (inactive)
SW-620
  GI50: 19.3 µM (inactive)
UACC-257
  GI50: > 100 µM (inactive)
UO-31
  GI50: 41 µM (inactive)

## CC(=O)NC(CCCOC(C)=O)C(=O)NC(CCCOC(C)=O)C(=O)NC(CCCOC(C)=O)C(=O)NC(Cc1ccc([N+](=O)[O-])cc1)C(=O)NCC(=O)OCc1ccccc1 (configuration not stated)
786-0
  GI50: > 100 µM (inactive)
A498
  GI50: > 100 µM (inactive)
ACHN
  GI50: > 100 µM (inactive)
EKVX
  GI50: > 100 µM (inactive)
HCC 2998
  GI50: > 100 µM (inactive)
HCT-15
  GI50: > 100 µM
HT-29
  GI50: > 100 µM (inactive)
KM12
  GI50: > 100 µM (inactive)
MDA-MB-231
  GI50: > 100 µM (inactive)
NCI-H522
  GI50: > 100 µM (inactive)
RXF 393
  GI50: > 100 µM (inactive)
SF-268
  GI50: > 100 µM (inactive)
SF-539
  GI50: > 100 µM (inactive)
SK-MEL-28
  GI50: > 100 µM (inactive)
SN12C
  GI50: > 100 µM (inactive)
SW-620
  GI50: > 100 µM (inactive)
UACC-257
  GI50: > 100 µM (inactive)
UO-31
  GI50: > 100 µM (inactive)

## COC(=O)CNC(=O)C(Cc1ccccc1)NC(=O)c1ccc(-c2ccc(Cl)cc2Cl)o1 (configuration not stated)
786-0
  GI50: 16.9 µM (inactive)
A498
  GI50: 10.7 µM (inactive)
ACHN
  GI50: 18.9 µM (inactive)
EKVX
  GI50: 20.3 µM (inactive)
HCT-15
  GI50: 23.3 µM
HL-60
  GI50: 12.2 µM (inactive)
HT-29
  GI50: 14.4 µM (inactive)
KM12
  GI50: 24.4 µM (inactive)
MDA-MB-231
  GI50: 19 µM (inactive)
NCI-H522
  GI50: 13.4 µM (inactive)
RXF 393
  GI50: 18.4 µM (inactive)
SF-268
  GI50: 19.8 µM (inactive)
SF-539
  GI50: 36.3 µM (inactive)
SK-MEL-28
  GI50: 43.8 µM (inactive)
SN12C
  GI50: 26.3 µM (inactive)
SW-620
  GI50: 34.2 µM (inactive)
UACC-257
  GI50: 17.8 µM (inactive)
UO-31
  GI50: 52.6 µM (inactive)

## CC(=O)OC[C@]1(C(=O)C(O)c2ccoc2)[C@H](C)CC[C@@]23COC(=O)C2=CCC[C@@H]31 (some centres not stated)
786-0
  GI50: > 10 µM (inactive)
A498
  GI50: > 10 µM (inactive)
ACHN
  GI50: > 10 µM (inactive)
EKVX
  GI50: > 10 µM (inactive)
HCC 2998
  GI50: > 10 µM (inactive)
HCT-15
  GI50: > 10 µM
HL-60
  GI50: > 10 µM (inactive)
HT-29
  GI50: > 10 µM (inactive)
KM12
  GI50: > 10 µM (inactive)
MDA-MB-231
  GI50: > 10 µM (inactive)
NCI-H522
  GI50: > 10 µM (inactive)
RXF 393
  GI50: > 10 µM (inactive)
SF-268
  GI50: > 10 µM (inactive)
SF-539
  GI50: > 10 µM (inactive)
SN12C
  GI50: > 10 µM (inactive)
SW-620
  GI50: > 10 µM (inactive)
UACC-257
  GI50: > 10 µM (inactive)
UO-31
  GI50: > 10 µM (inactive)
